This assay has as its target T1, ESRRA (Homo sapiens, UniProt P11474).
T1 construct: endogenous in cells; host or cells: HCC38 CD44hi cells (FACS-sorted from bulk HCC38, 2D culture)
T1 sequence (P11474 1-423): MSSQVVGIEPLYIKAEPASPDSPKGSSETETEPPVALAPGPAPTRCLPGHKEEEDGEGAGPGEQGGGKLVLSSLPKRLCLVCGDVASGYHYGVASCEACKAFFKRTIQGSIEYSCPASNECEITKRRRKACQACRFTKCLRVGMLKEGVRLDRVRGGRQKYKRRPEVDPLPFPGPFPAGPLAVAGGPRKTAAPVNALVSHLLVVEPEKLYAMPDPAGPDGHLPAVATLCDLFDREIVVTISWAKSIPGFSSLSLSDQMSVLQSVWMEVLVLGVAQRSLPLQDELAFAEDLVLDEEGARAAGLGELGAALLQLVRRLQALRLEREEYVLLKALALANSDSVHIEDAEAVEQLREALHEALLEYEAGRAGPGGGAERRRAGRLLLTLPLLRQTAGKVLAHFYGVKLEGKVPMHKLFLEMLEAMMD
Put plainly: Western blot of CDH1 expression after ESRRA inhibitor (C14) treatment of HCC38 CD44hi cells. Format: cell-based. As to conditions: 2D cultured HCC38 CD44hi cells; 5 and 10 M; 48 hours post-treatment; vs DMSO vehicle; n=3 biological replicates; p≤0.05. The method, then:
In parallel, HCC38 CD44^hi cells were also treated with an ESRRA inhibitor ((2-Aminophenyl)(1-(3-isopropylphenyl)-1H-1,2,3-triazol-4-yl)methanone) (BLD Pharm, China, Cat no. BD01201330) (referred to as Compound 14 (C14) herein) at 5 and 10 M concentrations. Vehicle controls were treated with DMSO. Cells were harvested 48 hours post-treatment and processed for protein extraction which were studied for changes in ESRRA and CDH1 expression using western blot (n=3 biological replicates).
Western Blotting: Proteins were extracted from control and treated cells using ice cold modified RIPA buffer (50 mM Tris-HCl pH 7.5, 150 mM NaCl, 1 mM EDTA, 1 mM EGTA, 1% Triton X-100, 0.1% SDS with supplemented with 1× protease and phosphatase inhibitor cocktails). The lysates were sonicated using a QSONICA Q55 probe sonicator at […] for 20 seconds in an ice bath. This whole cell lysate was centrifuged at 14,000×g for 10 min at 4° C. and stored in −80° C. until further use. Proteins were quantified using the Pierce™ BCA Protein Assay Kit (Cat. 23227, Thermo Fisher Scientific, USA) as per the manufacturer's instructions. […]
Next, membranes were incubated with appropriate HRP-conjugated secondary antibodies. […] The signal intensity of the bands in western blots was quantified using Image Studio Lite version 5.2 (LI-COR Biotechnology, USA).
For orientation: In western blotting, separated proteins are transferred to a membrane and probed.

`CC(C)c1cccc(-n2cc(C(=O)c3ccccc3N)nn2)c1` [ESRRA antagonist, (2-Aminophenyl)(1-(3-isopropylphenyl)-1H-1,2,3-triazol-4-yl)methanone]: the “CDH1 expression (western blot, relative fold-change)” value was “significant increase”.

The values are drawn from US20250308633A1, “Methods Regarding the Treatment or Prevention of Diseases Including Cancer by Modulating Transcriptional Networks Controlling MET and EMT” (Yale University, priority 2024, published 2025).
